According to the supplement of paper PMC10307832:

How the values were obtained:
Experiment in all cases: relative viability (nuclei count vs DMSO), 5 days (fraction); higher = more cells survive
[1] = compound: CC1=CC(=NN1)NC2=CC(=NC(=N2)/C=C/C3=CC=CC=C3)N4CCN(CC4)C
Outline: (§1)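 Lung cancer cell lines received five library-drug doses (not always all listed) spaced by √10, pinned on vehicle-anchored 1536-well plates after an overnight stay at 37 °C. Five days later, with no medium change, nuclei were Hoechst-stained, imaged at 4× and counted with MetaXpress. Viability is treated-well nuclei relative to vehicle-well nuclei, as a median across plates. Passing plates had control CV below 25% and at least one doubling.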

Obatoclax = compound: COC1=CC(c2cc3ccccc3[nH]2)=N/C1=C\c1[nH]c(C)cc1C [Obatoclax]
Outline: as §1

Bortezomib = compound: CC(C)C[C@H](NC(=O)[C@H](Cc1ccccc1)NC(=O)c1cnccn1)B(O)O [Bortezomib]
Outline: as §1

| Cell Line | relative viability ([1]; 0.08 µM) | relative viability ([1]; 0.253 µM) | relative viability ([1]; 0.8 µM) | relative viability ([1]; 2.53 µM) | relative viability ([1]; 8 µM) | relative viability (Obatoclax; 0.01 µM) | relative viability (Obatoclax; 0.03162 µM) | relative viability (Obatoclax; 0.1 µM) | relative viability (Obatoclax; 0.3162 µM) | relative viability (Obatoclax; 1 µM) | relative viability (Bortezomib; 0.0002 µM) | relative viability (Bortezomib; 0.000632 µM) | relative viability (Bortezomib; 0.002 µM) | relative viability (Bortezomib; 0.002 µM, anchor plate) | relative viability (Bortezomib; 0.006325 µM) | relative viability (Bortezomib; 0.02 µM) |
| --- | --- | --- | --- | --- | --- | --- | --- | --- | --- | --- | --- | --- | --- | --- | --- | --- |
| 201T | 1.02 | 1.06 | 0.928 | 0.892 | 0.354 | 0.965 | 0.909 | 0.95 | 1.02 | 1.05 | 0.98 | 0.953 | 0.959 | 1.09 | 0.854 | 0.351 |
| A549 | 0.909 | 1.04 | 0.92 | 0.29 | 0.0371 | 0.987 | 0.942 | 0.92 | 0.922 | 0.575 | 0.914 | 0.981 | 0.939 |  | 0.0802 | 0.0522 |
| A-427 | 1.05 | 0.908 | 0.942 | 0.286 | 0.172 | 0.968 | 0.972 | 0.86 | 0.954 | 0.719 | 0.841 | 0.905 | 1.05 | 0.998 | 0.233 | 0.169 |
| ABC-1 | 0.835 | 0.888 | 1.16 | 0.341 | 0.227 | 1.05 | 0.971 | 0.753 | 0.828 | 0.448 | 0.779 | 0.566 | 0.271 | 0.321 | 0.216 | 0.242 |
| BEN | 0.921 | 0.974 | 0.998 | 0.618 | 0.224 | 1.02 | 0.821 | 0.727 | 0.922 | 0.953 | 0.91 | 0.991 | 0.954 | 0.843 | 0.704 | 0.274 |
| CAL-12T | 0.977 | 0.946 | 0.928 | 0.339 | 0.187 | 0.995 | 0.955 | 1 | 0.483 | 0.328 | 0.93 | 0.971 | 0.957 | 1.03 | 0.49 | 0.155 |
| COR-L23 | 1.03 | 1.1 | 0.976 | 0.237 | 0.116 | 1.01 | 1.07 | 0.945 | 0.375 | 0.27 | 0.97 | 0.948 | 0.964 | 0.971 | 0.0694 | 0.071 |
| COR-L 105 | 0.848 | 1 | 0.891 | 0.301 | 0.27 | 0.884 | 1.08 | 0.992 | 0.69 | 0.436 | 0.855 | 0.936 | 0.797 | 0.931 | 0.292 | 0.314 |
| Calu-6 | 0.967 | 0.991 | 0.889 | 0.236 | 0.141 | 1 | 0.994 | 0.963 | 0.943 | 0.488 | 0.998 | 0.965 | 0.974 | 0.961 | 0.118 | 0.0868 |
| ChaGo-K-1 | 0.953 | 1.01 | 0.976 | 0.647 | 0.289 | 0.997 | 0.829 | 1.01 | 0.931 | 1.06 | 0.993 | 0.814 | 1.01 | 1.08 | 0.594 | 0.213 |
| EBC-1 | 0.945 | 0.966 | 0.953 | 0.475 | 0.178 | 0.923 | 0.958 | 0.924 | 0.87 | 0.338 | 0.993 | 1 | 0.417 | 0.576 | 0.0892 | 0.0983 |
| EKVX | 0.9 | 1.05 | 1.09 | 0.844 | 0.267 | 1.07 | 0.891 | 0.905 | 0.982 | 0.918 | 0.934 | 0.96 | 0.987 | 1.04 | 0.669 | 0.124 |
| EMC-BAC-2 | 0.939 | 1.03 | 0.886 | 0.477 | 0.246 | 0.973 | 0.957 | 0.74 | 0.96 | 0.819 | 0.938 | 0.961 | 0.999 | 1.11 | 0.543 | 0.2 |
| EPLC-272H | 0.819 | 1.09 | 0.908 | 0.404 | 0.35 | 0.99 | 0.924 | 0.96 | 0.675 | 0.339 | 0.8 | 0.652 | 0.871 | 0.902 | 0.66 | 0.105 |
| H3255 | 0.966 | 1.05 | 1.04 | 0.931 | 0.473 | 0.931 | 0.926 | 0.896 | 1 | 0.959 | 0.928 | 1.06 | 0.951 | 0.816 | 0.274 | 0.291 |
| HARA | 0.908 | 0.951 | 1.25 | 0.339 | 0.217 | 0.947 | 0.956 | 1.01 | 0.908 | 0.827 | 0.937 | 0.888 | 0.902 | 1.11 | 0.374 | 0.0946 |
| HCC-15 | 1.01 | 1 | 1.01 | 0.524 | 0.1 | 0.975 | 0.948 | 0.842 | 1.05 | 0.816 | 0.909 | 1.07 | 0.996 | 1.01 | 0.549 | 0.0945 |
| HCC-44 | 0.986 | 1.01 | 0.933 | 0.86 | 0.18 | 1.01 | 0.953 | 0.827 | 0.929 | 0.755 | 0.95 | 0.968 | 0.987 | 0.895 | 0.869 | 0.173 |
| HCC-78 | 0.904 | 1.14 | 1.08 | 0.701 | 0.27 | 1.09 | 0.866 | 0.891 | 0.771 | 1.02 | 0.874 | 0.901 | 0.815 | 0.52 | 0.512 | 0.329 |
| HCC-366 | 0.954 | 1.03 | 0.985 | 0.452 | 0.0338 | 1 | 1.05 | 1.02 | 1.01 | 0.744 | 1.03 | 0.974 | 1.05 | 1.02 | 1.01 | 0.045 |
| HCC-827 | 1.02 | 1.06 | 1.06 | 0.89 | 0.443 | 0.97 | 0.957 | 0.946 | 1.05 | 0.979 | 1.06 | 1.04 | 1.05 | 1.05 | 0.738 | 0.165 |
